# Experimental data as given in paper PMC12833730, “Discovery of a First‐in‐Class Covalent Allosteric SHP1 Inhibitor with Immunotherapeutic Activity” (Angewandte Chemie (International Ed. in English), 2025).
# Where “and” joins values, the source holds several entries; their conditions need not be identical. Equal entries are not always repeated. Where two headings read alike, the source gives them in different places.
# Columns and labels:
# SHP1 [1] = target: T1, SHP1 (Homo sapiens, UniProt P29350); assay: Intact protein LC-MS covalent adduct formation; type: binding; conditions: 60 min, room temperature, pH 7.0; single adduct
# T1 construct: SHP1, residues 245-543; made in house; host or cells: E. coli BL21(DE3)
# Description: (§1) The moderate half‐life in the presence of excessive GSH implied the low intrinsic reactivity of Z57117023. e) SHP1 protein was incubated with or without Z57117023 in 3,3‐dimethylglutarate buffer (pH = 7.0) for 60 min at room temperature to form a covalent adduct.
# Covalent inhibitors generally inactivate their targets through a two‐step process, starting with a reversible binding event (characterized by the dissociation constant K I) and followed by covalent bond formation (represented by the first‐order rate constant of inactivation k inact). Although IC50 values are often utilized to assess the potency of covalent inhibitors, the second‐order rate constant k inact/K I is preferred because it provides a measure of covalent inhibition in a time‐ and dose‐independent manner.^[ [60], [62], [67], [68] ^] […] A single SHP1‐Z57117023 adduct was observed when SHP1 was incubated with Z57117023, with a mass shift of 295.21 Da (calculated 295.54 Da) (Figure 1e), consistent with the loss of a chlorine atom from Z57117023.
# The mixtures were centrifuged to remove the unfolded SHP1 proteins, and the supernatants were spiked with a control protein CDC14A, followed by loading into SDS‐PAGE gels to quantify the relative SHP1 level.
# GSH = assay: Intrinsic reactivity toward GSH, LC-MS; type: physicochemical; conditions: GSH in 3,3-dimethylglutarate (DMG) buffer, LC-MS
# Description: as §1
# (§2) The area under the curve (AUC) of each measurement was normalized to 10 µM compounds to calculate the percent remaining. Data were fitted using Prism GraphPad 10.1.1.
# [2] = Intrinsic reactivity toward GSH, LC-MS; type: physicochemical
# Description: as §1, §2
# SHP1 [3] = target: T1, SHP1; assay: Time-course pNPP progress-curve inactivation kinetics; type: biochemical; conditions: for k inact/K I for SHP1 inactivation: time-course pNPP assay
# Text: Covalent inhibitors generally inactivate their targets through a two‐step process, starting with a reversible binding event (characterized by the dissociation constant K I) and followed by covalent bond formation (represented by the first‐order rate constant of inactivation k inact). Although IC50 values are often utilized to assess the potency of covalent inhibitors, the second‐order rate constant k inact/K I is preferred because it provides a measure of covalent inhibition in a time‐ and dose‐independent manner.^[ [60], [62], [67], [68] ^] Because k inact/K I measurement can be time and labor‐intensive, we developed an efficient method to determine the observed first‐order rate constant (k obs) from the analysis of a progress curve in the presence of an inhibitor.^[ [69] ^] The k obs value is then plotted as a function of inhibitor concentration to obtain the kinetic parameters k inact, K I, and k inact/K I.^[ [70] ^] […] To verify SHP1 covalent modification by Z57117023, we ascertained SHP1 covalent adduct formation by intact protein liquid chromatography‐mass spectrometry (LC‐MS).^[ [58] ^] A single SHP1‐Z57117023 adduct was observed when SHP1 was incubated with Z57117023, with a mass shift of 295.21 Da (calculated 295.54 Da) (Figure 1e), consistent with the loss of a chlorine atom from Z57117023.
# Phosphatase Activity Assay: To determine the inhibition kinetics of acquired hits, repurchased compounds from Enamine were serially diluted in a 96-well plate followed by the addition of pNPP at Km concentrations of corresponding proteins. The reaction was initiated by the addition of 20 nM proteins, and the reaction progression was monitored at OD405 using a CLARIOstar Plus Microplate Spectrophotometer (BMG Labtech) for 60 minutes. After background subtraction, the obtained progress curves were fitted to the equation A = v0(1-e^-kt)/k, where A is the absorbance at 405 nm, v0 is the initial rate, k is the kobs of the corresponding reaction. The acquired kobs was then plotted against inhibitor concentrations, which were fitted to kobs = kinact[I]/(KI+[I]), where kinact is the maximum rate of inactivation, [I] is the inhibitor concentration, and KI is the reversible binding affinity of the compound to the protein. Data were fitted using Prism GraphPad 10.1.1.
# SHP2 = target: T2, SHP2 (Homo sapiens, UniProt Q06124); assay: IC50 after preincubation, DiFMUP phosphatase assay; type: biochemical
# T2 construct: SHP2, residues 224-528; made in house; host or cells: E. coli BL21(DE3)
# T2 sequence (Q06124 224-528): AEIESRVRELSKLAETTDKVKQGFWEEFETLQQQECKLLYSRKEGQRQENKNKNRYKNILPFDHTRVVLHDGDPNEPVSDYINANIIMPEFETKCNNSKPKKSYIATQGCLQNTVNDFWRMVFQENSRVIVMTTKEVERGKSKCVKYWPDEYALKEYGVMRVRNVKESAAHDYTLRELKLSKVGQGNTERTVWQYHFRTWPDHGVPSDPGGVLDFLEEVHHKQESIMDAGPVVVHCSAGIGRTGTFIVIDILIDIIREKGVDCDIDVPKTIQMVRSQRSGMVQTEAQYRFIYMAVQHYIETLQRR
# Description: (§3) To further confirm the time-dependent inhibition and determine the IC50 of acquired hits, repurchased compounds from Enamine were serially diluted in a 96-well plate, followed by the addition of proteins at 200 nM. After 10-minute and 60-minute preincubation, 2 µL of the mixture was transferred into 100 µM 6,8-Difluoro-4-Methylumbelliferyl Phosphate (DiFMUP, Invitrogen, cat# D6567) at a final volume of 200 µL. The reaction was allowed to proceed for 5 minutes and quenched by the addition of 40 µl of a 160 µM solution of bpV(Phen) (Sigma-Aldrich, cat# SML0889). The fluorescence signal was measured using a CLARIOstar Plus Microplate Spectrophotometer (BMG Labtech) using excitation and emission wavelengths of 340 nm and 450 nm, respectively. Data were fitted using Prism GraphPad 10.1.1.
# PTP1B = target: T3, PTP1B (Homo sapiens, UniProt P18031); assay: IC50 after preincubation, DiFMUP phosphatase assay; type: biochemical
# T3 construct: PTP1B, residues 1-321; made in house; host or cells: E. coli BL21(DE3)
# Description: as §3
# PTPN22 = target: T4, PTPN22 (Homo sapiens, UniProt Q9Y2R2); assay: IC50 after preincubation, DiFMUP phosphatase assay; type: biochemical
# T4 construct: LYP/PTPN22, residues 1-294; made in house; host or cells: E. coli BL21(DE3)
# T4 sequence (Q9Y2R2 1-294): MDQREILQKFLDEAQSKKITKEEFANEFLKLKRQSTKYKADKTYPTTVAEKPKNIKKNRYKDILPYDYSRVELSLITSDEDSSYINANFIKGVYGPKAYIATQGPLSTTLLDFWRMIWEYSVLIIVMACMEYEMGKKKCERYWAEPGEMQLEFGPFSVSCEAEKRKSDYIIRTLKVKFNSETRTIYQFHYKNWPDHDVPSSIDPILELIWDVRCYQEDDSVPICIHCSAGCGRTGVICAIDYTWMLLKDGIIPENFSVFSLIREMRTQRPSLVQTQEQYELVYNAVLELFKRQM
# Description: as §3
# [4] = pH 7, 100-fold excess GSH, pH 7.0, room temperature, read-out: half-life (t1/2) toward excess GSH (converted)
# T1 sequence (P29350 245-543): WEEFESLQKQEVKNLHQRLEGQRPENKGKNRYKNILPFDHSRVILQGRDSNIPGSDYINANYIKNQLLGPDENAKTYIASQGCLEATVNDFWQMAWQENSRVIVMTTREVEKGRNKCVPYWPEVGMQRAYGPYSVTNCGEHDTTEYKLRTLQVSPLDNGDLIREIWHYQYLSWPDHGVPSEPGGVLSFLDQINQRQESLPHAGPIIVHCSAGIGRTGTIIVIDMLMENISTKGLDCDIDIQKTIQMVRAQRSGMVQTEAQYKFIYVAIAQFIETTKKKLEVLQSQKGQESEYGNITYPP
# T3 sequence (P18031 1-321, species assumed): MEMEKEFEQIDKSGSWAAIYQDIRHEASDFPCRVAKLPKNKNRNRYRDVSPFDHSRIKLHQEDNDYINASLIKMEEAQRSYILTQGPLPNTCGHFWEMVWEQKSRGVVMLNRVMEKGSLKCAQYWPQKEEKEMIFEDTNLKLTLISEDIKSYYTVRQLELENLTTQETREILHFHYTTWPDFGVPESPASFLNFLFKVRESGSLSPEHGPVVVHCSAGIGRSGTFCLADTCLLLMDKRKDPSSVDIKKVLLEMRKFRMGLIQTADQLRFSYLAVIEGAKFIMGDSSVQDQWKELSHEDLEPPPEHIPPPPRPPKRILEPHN
"half-life at 10 µM (GSH; pH 7, 100-fold excess GSH, 3,3-dimethylglutarate buffer pH 7.0, room temperature, read-out: half-life with GSH)",reactivity toward GSH (in words) [2],"IC50 (SHP2; 10-min preincubation, read-out: SHP2 IC50, 10 min)","IC50 (SHP2; 60-min preincubation, read-out: SHP2 IC50, 60 min)","IC50 (PTP1B; column headed 60 min (c7), read-out: PTP1B IC50, 60 min)","IC50 (PTPN22; 10-min preincubation, read-out: PTPN22 IC50, 10 min)","IC50 (PTPN22; 60-min preincubation, read-out: PTPN22 IC50, 60 min)",SMILES,mass shift of SHP1 covalent adduct (SHP1 [1]),half-life at 10 µM (GSH; [4]),fold less reactive toward GSH than Z57117023 ([2]; vs Z57117023),"k inact (SHP1 [3]; pH 7.0, room temperature)","KI (inactivation) (SHP1 [3]; pH 7.0, room temperature, read-out: K I)",k inact/K I for SHP1 inactivation (SHP1 [3]),k inact/K i fold higher than that of Z57117023 (SHP1 [3]; vs Z57117023),"IC50 (SHP2; 60-min preincubation, read-out: 60 min IC50, SHP2)","IC50 (PTP1B; 60-min preincubation, read-out: 60 min IC50, PTP1B)","IC50 (PTPN22; 60-min preincubation, read-out: 60 min IC50, PTPN22)"
,,,,,,,"N#Cc1ccsc1NS(=O)(=O)c1ccc(NC(=O)CCl)cc1 [M029, 2-Chloro-N-(4-(N-(3-cyanothiophen-2-yl)sulfamoyl)phenyl)acetamide]",319.31 ± 1.14 Da and 319.31 Da,34.3 h,5 fold,0.0038 ± 0.008 s⁻¹,76.7 ± 12.5 µM,49.55 M⁻¹ s⁻¹,13 fold,58.2 ± 4.6 µM,152 ± 16.6 µM,88.6 ± 20.1 µM
7.07 ± 0.918 h,minimal reactivity toward GSH,> 200 µM,> 200 µM,> 200 µM,> 200 µM,> 200 µM,"O=C(CCl)Nc1ccc(S(=O)(=O)Nc2nccs2)cc1 [Z57117023, 2-chloro-N-(4-(N-(thiazol-2-yl)sulfamoyl)phenyl)acetamide]",295.21 Da,~7.1 h,,,,3.792 M⁻¹ s⁻¹,,,,
